{"source": "patent US11723947B2", "about": "“Anti-senescence compounds and uses thereof” (Erasmus University Medical Center Rotterdam, priority 2015, dated 2023)", "key": {"[1]": {"test_system": "senescent and non-senescent IMR90 fibroblasts", "test": "Real-time cell density, xCELLigence, senescent and non-senescent IMR90 fibroblasts", "assay_type": "cell-based, human", "conditions": "2 μM on three consecutive days (24, 48 and 72 h)", "experimental": "Measurements continued for the indicated time-points. […] Experiment as in FIG. 2K.\nCell density after time of plating was followed. […] NQDI is apparently rather safe even at high doses as as non-senescent cells are not affected by 20 uM NQDI."}, "[2]": {"test_system": "Senescent and control IMR90", "experimental": "The selectivity index (S.I.) for the EC50 values was determined after […] (GraphPad Prism) of the curves. […] Real-time cell density was measured using an xCELLigence detection system (ACEA Biosciences). Prior to the start of the measurement 50 μL DMEM 10% FCS was added to each well of an E-plate view 16 (Roche) to determine background signal. Non-senescent (2000 cells per well) and senescent (5000 cells/well) IMR90 fibroblasts were then plated in 150 μl medium. 16 hours later the E-plate was placed in the xCELLigence reader and the cell density was recorded every 30 minutes. […] Measurements continued for the indicated time-points. […] Experiment as in FIG. 2C, but with the indicated peptides. […] Cells were plated in 4-well Poly-L-Lysine coated glass bottom 35 mm dishes (D141410; Matsumi, Japan) and incubated with NucView488 Caspase-3 (4440; Essen Bioscience). […] 8h after addition the real-time imaging was initiated and every 30 min a grid of 3×3 pictures was imaged. The imaging continued for another 6 days and the images were concatenated using Zen imaging software. […] After 6 days cell viability was determined as in FIG. 2C). […] Experiment as in FIG. 2C, but according to the indicated treatment plan. Instead of one single dose, three doses were given (one day in between) of ⅓ that concentration each time. […] Left: Experiment as in FIG. 2C, but on cells pretreated once daily for two days with IL-1α Receptor Antagonist (RA), which blocks IL-1α/β signaling, recombinant IL-6 and recombinant IL-1α/β. […] Right: Similar experiment as in the left panel, except viability measured one day earlier. […] In senescent cells p53 signaling causes upregulation of the cell-cycle arrest and pro-survival protein p21Cip1. […] Experiment as in FIG. 2K. […] Experiment as in FIG. 2c, but with control and senescent IMR90 stable transduced with shRNAs against p53 or a control shRNA (shGFP).\nA) Control IMR90 and IMR90 induced to senesce through 10Gy IR were plated in triplicate for each condition in a 96-well plate. […] After 6 days viability was determined through AqeousOne celltiter assay (Promega) according to the manufacturer's instructions.\nNon-senescent (=“normal”, proliferating) IMR90 cells (ATCC #CCL-186, a diploid primary human fibroblast adherent cell line derived from fetal lung tissue) were irradiated with 10Gy Gamma-IR (IR=irradiation). After 7 days these cells are senescent and can be used for experiments comparing them to their non-irradiated (=non-senescent) counterparts. Senescent and non-senescent IMR90 fibroblasts were plated for longitudinal cell density measurement using the xCELLigence system (ACEA Biosciences, Inc., San Diego, Calif.).\n(§1) 5000 senescent (obtained as described above) and 2000 non-senescent IMR90 fibroblasts were plated in 96-well plates incubated with concentrations of NQDI between 0-20 μM and after 6 days cell viability was determined by AqueousOne CellTiter (MTT) assay according to the manufacturer's instructions.\nas §1, with “R406, ranging from 16, 32, 64 to 128 nM” for “NQDI between 0-20 μM”\nNormal human IMR90 fibroblasts were exposed to 10 Gy Ionizing Radiation or treated 3× (bidaily) with 0.5 μM Doxorubicin. Seven days later they were processed for SA-β-Gal staining to visualize senescent cells. […] DAPI was used as a counterstain to visualize nuclei. […] After 6 days the cell viability was determined using an AqueousOne Celltiter (MTT) assay according to the manufacturer's instructions."}, "LOX-IMVI": {"test_system": "LOX-IMVI", "test": "Viability of LOX-IMVI metastatic melanoma cells", "assay_type": "cell-based, human", "experimental": "Assay as in FIG. 2C with increasing doses of Vemurafenib. […] LOX-IMVI however is resistant. […] Experiment as in FIG. 2C, but with LOX-IMVI treated with FOXO4 DRI alone, the BRAF^V600E-inhitors Vemurafenib or Dabrafenib, or the MEK inhibitor Trametinib alone, or a combination hereof. […] LOX-IMVI cells were incubated with FOXO4 DRI or Vemurafenib alone or in combination. The cells were co-treated with the pan-caspase inhibitor QVD-OPH to block caspase-dependent cell death. After 3 days the media was refreshed with new QVD-OPH containing media, but in the absence of FOXO4 DRI or Vemurafenib. At day 5 after initial treatment the cells were fixed and stained for Cytochrome C. Cytochrome C is present in the mitochondria in viable cells and is released into the cytosol when apoptosis is activated. Plotted are the number of cells showing release of Cytochrome C. […] LOX-IMVI were assessed for viability in the presence of FOXO4 DRI, the oxidative stress inhibitor N-Acetyl Cysteine (NAC) or the oxidative stressor H2O2. […]\nLOX-IMVI cells were plated for (i) cell viability assay as in example 1 by AqueousOne MTT assay, (ii) apoptosis by Cytochrome C release, (iii) longitudinal cell density assay, and incubated with the FOXO4 DRI peptide, Vemurafenib/Trametinib, or their combination, respectively. […] The % of cells with Cytochrome C release was scored."}, "[3]": {"test_system": "fast aging Xpd^TTD/TTD mice", "test": "Healthspan, organ function and blood parameters of fast aging Xpd^TTD/TTD and wildtype mice", "assay_type": "in vivo, mouse", "conditions": "5 mg/kg i.v. day 0, 2 and 4, end of experiment"}}, "note": "Square brackets hold non-standard residues; d marks the D form. Ends that are not written are not given here."}
{"molecule": "CCOC(=O)c1c2c3c(cccc3[nH]c1=O)C(=O)c1ccccc1-2", "note": "[NQDI, 2,7-Dihydro-2,7-dioxo-3H-naphtho[1,2,3-de]quinoline-1-carboxylic acid ethyl ester]", "values": [{"measurement": "cell density, sequential rounds", "setting": "[1]", "value": "enhance its effectivity towards senescent cell clearance"}, {"measurement": "% viability over Mock, senescent and non-senescent IMR90", "setting": "[2]; 0-20 μM, 6 days", "value": "clearly reduces cell viability in senescent, but not non-senescent IMR90 fibroblasts"}, {"measurement": "effect on non-senescent cells at high dose", "setting": "[2]; 20 uM", "value": "not affected"}]}
{"molecule": "CC(C)(C)c1nc(-c2cccc(NS(=O)(=O)c3c(F)cccc3F)c2F)c(-c2ccnc(N)n2)s1", "note": "[Dabrafenib]", "values": [{"measurement": "LOX-IMVI viability, agent on its own", "setting": "LOX-IMVI; single agent", "value": "do not markedly affect LOX-IMVI viability"}]}
{"molecule": "[dL][dT][dL][dR][dK][dE][dP][dA][dS][dE][dI][dA][dQ][dS][dI][dL][dE][dA][dY][dS][dQ][dN]G[dW][dA][dN][dR][dR][dS]GG[dK][dR][dP][dP][dP][dR][dR][dR][dQ][dR][dR][dK][dK][dR]G [FOXO4 DRI]", "values": [{"measurement": "toxicity to the hematopoietic system (blood parameters)", "setting": "[3]", "value": "does not induce toxicity to the hematopoietic system"}, {"measurement": "toxicity to non-senescent cells", "setting": "[2]", "value": "proved to be safe to non-senescent cells"}]}
{"molecule": "OO", "note": "[H2O2]", "values": [{"measurement": "LOX-IMVI viability, individually", "setting": "LOX-IMVI; FOXO4 DRI or H2O2 alone", "value": "only marginally influenced LOX-IMVI viability"}]}
